This is an account of results in patent US12685777B2, “Compositions, systems, and methods for modulating a target gene” (The Board of Trustees of the Leland Stanford Junior …, priority 2022, dated 2026).

Where two headings read alike, the source gives them in different places.

In one experiment the test system is DMS-79. Put plainly: Dose response on viability of small cell lung cancer line, resazurin assay. It is filed as cell-based. Particulars: Homo sapiens; DMS-79, 72 h treatment. Here is the method:
(§1) IC50 of JWZ-7-7, BI-3812, JQ1, and combinations were calculated based on a dose response curve on three small cell lung cancer lines (FIG. 5). The dose response curve on viability was performed in technical replicates and biological triplicate after treating cells for 72 hours across a broad range of concentrations via serial dilutions. Viable cells were measured after treatment via a resazurin assay. The signal for viable assays was normalized to the DMSO treated negative control. A four-parameter non-linear fit was performed to fit a curve to calculate the IC50 for each of the cell lines. The table below describes the calculated IC50 across JWZ-7-7, JQ1, BI-3812 and combination of JQ1 and BI-3812 after 72 h treatment in technical replicates and biological triplicates.
For orientation: The colour change of resazurin is a common sign of viable cells or microbes.

The next experiment deals with NCI-H2196. The experiment is described as above. It is filed as cell-based. Particulars: Homo sapiens; NCI-H2196, 72 h treatment. Here is the method:
as §1

In a further experiment the test system is NCI-H1105. Described as above. Particulars: NCI-H1105, 72 h treatment; read-out: IC50. It is filed as cell-based. Here is the method: as §1
The test system of experiment [1] is KARPAS422. The experiment in a line: Cell viability (resazurin/PrestoBlue) of KARPAS422 DLBCL cells. It is filed as cell-based, human. Here is the method: (§2) 30,000 cells were plated in 100 μL media per well of a 96 well plate and treated with drug for indicated times and doses. A resazurin-based indicator of cell health (PrestoBlue, ThermoFisher #P50200) was added for 1.5 hours after which the fluorescence ratio at 560/590 nm was recorded. The background fluorescence was subtracted and the signal was normalized to DMSO-treated cells. EC50 measurements on cell lines were done with 4 biological repeats by separate cell passages maintained by 3 independent investigators. Fit of dose-response curves to data and statistical analysis was performed using drc package in R using the four-parameter log-logistic function.
These molecules were tested for their effect on viability of the chemotherapy (CHOP, or cyclophosphamide, hydroxydaunorubicin, Oncovin, and prednisone)-resistant DLBCL cell line, KARPAS422. […] Cell killing was essentially complete at 72 hours (FIG. 27, Panel D).

Another experiment deals with T1, BCL6 and BRD4 (Homo sapiens, UniProt O60885+P41182).
T1 construct: N-terminal fusion of HaloTag to full-length BCL6; N-terminal fusion of nanoLuc (nano-luciferase) to full-length BRD4 (Promega #N169A); host or cells: HEK293T
Put plainly: BCL6-BRD4 nanoBRET assay in HEK cells. Format: cell-based. Particulars: C- and N-terminally labeled BCL6 with N-terminally labeled BRD4, HEK cells. The protocol: The conditions and methods for nanoBRET, a well-recognized assay of in vivo target engagement, are described in PMID 26006698.
A 12-point dose-response curve with 3 technical replicates for each TCIP was carried out and corrected BRET ratios were calculated according to manufacturer assay protocol (Promega #TM439). Data was fit using the R package drc using the four-parameter log-logistic function.

The test system of another experiment is DLBCL cells. Put plainly: Killing of DLBCL cell lines (cell viability). It is filed as cell-based. The protocol: as §2
It was noted that neither Bl3812 nor JQ1 produced complete loss of cell viability (FIG. 28, Panel A) leaving a resistant population of cells as has been previously reported.

The subject of the next experiment is OCILY19. Put plainly: Cell viability of OCILY19 DLBCL cells. It is filed as cell-based. The protocol: as §2
The level of expression of BCOR, NCOR and SMRT, which engage PRC and HDACs to produce epigenetic suppression of target genes varied among the cell lines and could also contribute to the variation in sensitivity. […] Among the cell lines tested there was no evidence that killing required TP53, nor was there evidence of repression of killing by endogenous BCL2 levels (FIG. 28, Panel B).

In experiment [2] the test system is KARPAS422. Put plainly: Annexin V / 7-AAD apoptosis assay in KARPAS422 cells. It is filed as cell-based, human. Here is the method: For annexin V assays, 500,000 cells plated at 1 M/mL treated with drug for indicated timepoints and doses were harvested on ice and washed twice in 2.5% FBS/PBS. 2.5 μL of 7-AAD and 2.5 μL of FITC-Annexin V (Biolegend #640922) were added. Cells were incubated for 15 minutes at RT, then immediately measured on a BD Accuri. Gates were drawn based off single-stain and no-stain controls. For cell cycle and TUNEL analysis, cells plated at 1 M/mL were treated with drug for indicated timepoints and doses and pulsed with 10 μM ethynyl-EdU (Thermo #C10424) for 2 hours prior to harvesting on ice. 1 M cells were counted and washed in 2.5% FBS/PBS. Cells were resuspended at 10 M/mL and fixed in 4% PFA, washed, and permeabilized in 0.5% Triton-X100/PBS. […] After washes, the sample was incubated with 2 μL 7-AAD and 5 μL RNAseA for 30 minutes at RT in the dark, washed, and measured on a BD Accuri. Gates were drawn based off single-stain and no-stain controls and kept constant across conditions.

Another experiment relates to BCL6 mRNA. Put plainly: RT-qPCR of BCL6 isoforms. Format: cell-based, human. Particulars: 10 nM. The protocol: 12. RNA Extraction, qPCR, and Sequencing Library Preparation Cells were plated at 1 M/mL and harvested in TRIsure (Bioline #38033). RNA was extracted using Direct-zol RNA MicroPrep columns (Zymo #R^2062) treated with DNAseI. cDNA was prepared for RT-qPCR using the SensiFAST cDNA preparation kit according to manufacturer instructions (Bioline #65054). 1 μL of cDNA was used per RT-qPCR reaction prepared with SYBR Lo-ROX (Bioline #94020). For sequencing library preparation, polyA-containing transcripts were enriched for (NEB #E7490S) and prepared into paired-end libraries (NEB #E7760S). Libraries were sequenced on an Illumina NovaSeq (Novogene). 13. Western Blots
Thus, TCIPs can rewire a repressive negative feedback pathway into a positive feedback pathway, amplifying the potency of the molecule in killing cancer cells (model in FIG. 40, Panel D).
Background: In qPCR the cycle at which signal appears reflects the starting amount.

A further experiment has as its system BCL6 reporter. The experiment in a line: BCL6 reporter assay (GFP) in KARPAS422 cells. It is filed as cell-based, human. Particulars: KARPAS422, 8 hours. The protocol:
KARPAS422 cells were lentivirally transduced with a construct containing the reporter. […] Cells were washed in 2.5% FBS/PBS, 1:250 v/v of 7-AAD was added to distinguish live from dead cells, and harvested for flow cytometry on a BD Accuri. The GFP-positive gate were drawn off non-transduced cells and normalized to cells treated with DMSO.
A general note: In a reporter assay the amount or activity of a reporter protein is the signal.

In general, IC50 refers to the concentration at which inhibition is half-maximal. Consider `CNC(=O)COc1cc2cc(Nc3nc(N4CCC(C(=O)NCCCCCCCNC(=O)C[C@@H]5N=C(c6ccc(Cl)cc6)c6c(sc(C)c6C)-n6c(C)nnc65)CC4)ncc3Cl)cc(OC)c2n(C)c1=O` [JWZ-7-7, (S)-1-(5-chloro-4-((8-methoxy-1-methyl-3-(2-(methylamino)-2-oxoethoxy)-2-oxo-1,2-dihydroquinolin-6-yl)amino)pyrimidin-2-yl)-N-(7-(2-(4-(4-chlorophenyl)-2,3,9-trimethyl-6H-thieno[3,2-f][1,2,4]triazolo[4,3-a][1,4]diazepin-6-yl)acetamido)heptyl)piperidine-4-carboxamide], for which the figures for the IC50 in the experiment with DMS-79, in the experiment on NCI-H2196 and in the experiment on NCI-H1105 were 66 nM, 81 nM and 75 nM, respectively. The EC50 in the experiment on KARPAS422 [1] (Homo sapiens, KARPAS-422, KARPAS422 (CHOP-resistant, TP53-mutant DLBCL), 72 hours after addition of drug, read-out: EC50 of cell killing / cell viability) worked out at 1.3 nM. Further, the “nanoBRET signal of proximity” value at BCL6 and BRD4 is given as “generated a specific signal of proximity”. In addition, the “Cell killing after short exposure and washout” value in the experiment with DLBCL cells (10 nM, 4 hours exposure followed by washout) was “robust killing”.
Regarding `CNC(=O)COc1cc2cc(Nc3nc(N4CCC(C(=O)NCCCCCCCNC(=O)C[C@@H]5N=C(c6ccc(Cl)cc6)c6c(sc(C)c6C)-n6c(C)nnc65)CC4)ncc3Cl)cc(OC)c2n(C)c1=O` [TCIP1], the “Response of a DLBCL line with no detectable BCL6” value in the experiment with OCILY19 is given as “little or no response”. For the same compound, the EC50 in the experiment with KARPAS422 [1] (KARPAS422 (CHOP-resistant, TP53-mutant DLBCL), 72 hours after addition of drug, read-out: EC50 of cell killing / cell viability) came out at 1.3 nM; in the experiment on KARPAS422 [1] (KARPAS422, without cell cycle arrest, read-out: EC50 of cell viability without arrest), 1.1 nM; in the experiment with DLBCL cells (DLBCL lines including chemotherapy-resistant, TP53-mutant lines, 72 hrs), 1.3 nM; in the experiment with BCL6 reporter (read-out: EC50 of BCL6 reporter activation) it was 5 nM. Also, the “Time to detectable apoptosis” value in the experiment on KARPAS422 [2] lay in the range of 4 to 8 h. Also, in the experiment with BCL6 mRNA, the “Time to upregulation of the long isoform of BCL6 mRNA” value fell in the range of 1 to 2 h. Moreover, in the experiment on BCL6 reporter, the “Activation of BCL6 reporter” value is reported as “about 25 fold”.
